Test results taken from publication PMC9321663, “The DevTox Germ Layer Reporter Platform: An Assay Adaptation of the Human Pluripotent Stem Cell Test” (Toxics, 2022).

What was measured:
[1] = test system: SOX17 (endoderm marker) in RUES2-GLR cells; assay: DevTox GLR-Endo assay: decrease in percent SOX17-positive cells (AEID 3094, Sox17_dn); conditions: for AC50 / Emax: Homo sapiens; for AC50: read-out: ga (winning model), tcpl plot AEID3094, gain parameter of winning curve fit (log concentration, µM axis), hit calls only (converted); for Hit Call: Table S2, SOX17-positive cells, cutoff 3*bmad; for HIT−CALL: tcpl plot AEID3094, COFF 20.3; for DevTox ACC: Table S2, percent SOX17-positive cells; for DevTox ACC / DevTox-GLR Endo ACC: 48 h exposure; for DevTox-GLR Endo ACC: activity concentration at cutoff, SOX17-positive cells
Method in brief: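 Readouts are loss of SOX17-positive fraction and reduced cell number in endoderm-differentiating RUES2-GLR cells after 48 h of chemical exposure. Controls: undifferentiated and differentiated cells, 0.2% DMSO, and 1 µM SB431542; at least four biological replicates.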

RUES2-GLR cells = assay: DevTox GLR-Endo assay: decrease in total cell count, cytotoxicity (AEID 3098, CellCount_dn); conditions: for Emax: Homo sapiens, read-out: Cell Count % Max Inhibition; for Cell Count ACC / DevTox-GLR Endo CC: human, 48 h
[2] = test system: SOX17 (endoderm marker) in RUES2-GLR cells; assay: DevTox GLR-Endo assay: increase in percent SOX17-positive cells (AEID 3093, Sox17_up); format: cell-based, human; conditions: for Emax: Homo sapiens; for HIT−CALL: tcpl plot AEID3093, COFF 20.3
Method: (§1) The total test chemical incubation period was 48 h.
(§2) (Supplementary Materials).

[3] = test system: o/c ratio in H9 embryonic stem cells; conditions: Teratogen Index, o/c ratio; cited from earlier work
[4] = cited from earlier work; for Classification: developmental toxicant classification (Teratogen / Non-Teratogen) of reference and training chemicals, ref DOI per chemical: 10.1093/toxsci/kft239, 10.1093/toxsci/kfaa014, 10.1177/026119290203000204, 10.1038/s41598-020-59542-x; for DT Class.: developmental toxicant classification, chemicals common with quickPredict
[5] = test system: SOX2 (ectoderm and pluripotency marker) in RUES2-GLR cells; assay: DevTox GLR-Endo assay: increase in percent SOX2-positive cells (AEID 3095, Sox2_up); conditions: for AC50 / Emax: Homo sapiens; for AC50: read-out: ga (winning model); for Emax: read-out: tp (winning model); for MAX_MEAN: tcpl plot AEID3095, maximum mean response; for MAX_MED: tcpl plot AEID3095, maximum median response;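 as to all read-outs here: cells exposed to test chemicals for 48 h in total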
[6] = test system: BRA (mesoderm marker) in RUES2-GLR cells; assay: DevTox GLR-Endo assay: increase in percent BRA-positive cells (AEID 3096, Bra_up); format: cell-based, human
Method: as §1, §2

[7] = tcpl plot AEID3093, maximum mean response, read-out: MAX_MEAN
[8] = tcpl plot AEID3093, maximum median response, read-out: MAX_MED
[9] = read-out: DevTox % Max Inhibition

SMILES	AC50 [1] [µM]	Hit Call [1]	HIT−CALL [1]	Emax (RUES2-GLR cells) [%]	Emax [2, 7] [%]	Emax [2, 8] [%]	HIT−CALL [2]	quickPredict TI [3] [µM]	Classification [4]	DT Class. [4]	AC50 [5] [µM]	Emax [5] [%]	MAX_MEAN [5] [Percent Activity]	MAX_MED [5] [Percent Activity]	Emax [1, 9] [%]	Emax ([1]; read-out: MAX_MEAN) [%]	Emax ([1]; read-out: MAX_MED) [%]	Emax ([1]; read-out: tp (winning model)) [%]	DevTox ACC [1] [µM]	DevTox-GLR Endo ACC [1] [µM]	also measured
CCCCc1oc2ccccc2c1C(=O)c1cc(I)c(OCCN(CC)CC)c(I)c1 [Amiodarone]	17	Positive	1	97.1	6.18	3.59	0	5.1	Teratogen	Pos	11.7	1.23	2.82	2.22	–	–	–	–	–	–	–
Nc1ccn([C@@H]2O[C@H](CO)[C@@H](O)[C@@H]2O)c(=O)n1 [Cytarabine]	0.557	Positive	1	86.7	12.2	12.7	0	0.054	Teratogen	Pos	0.582	2.27	2.89	2.91	102	102	102	102	0.4557	0.46	effect on cell count (in words) (RUES2-GLR cells): significant decreases in cell count; Cell Count ACC (RUES2-GLR cells): 0.05231 µM; DevTox-GLR Endo CC (RUES2-GLR cells): 0.05 µM
CN(C)CCOC(c1ccccc1)c1ccccc1 [Diphenhydramine]	61.7	Positive	1	78.9	-0.267	-1.82	0	0.588	–	–	631	2.12	2.92	1.57	–	–	–	117	–	–	HIT−CALL ([6]; tcpl plot AEID3096, COFF 0.774): 1; MAX_MEAN ([6]; tcpl plot AEID3096, maximum mean response): 1.61 Percent Activity; MAX_MED ([6]; tcpl plot AEID3096, maximum median response): 1.58 Percent Activity
COc1ccc2c(c1)c(CC(=O)O)c(C)n2C(=O)c1ccc(Cl)cc1 [Indomethacin]	13.2	Positive	1	92.5	0.625	-1.03	0	72.7	–	–	12.9	6.38	6.48	6.65	101	100	101	101	9.385	9.38	Cell Count ACC (RUES2-GLR cells): 8.702 µM; DevTox-GLR Endo CC (RUES2-GLR cells): 8.70 µM
